Source: patent US9527857B2, “HSPC-sparing treatments for RB-positive abnormal cellular proliferation” (G1 Therapeutics, Inc., priority 2013, dated 2016)
Values belong to the molecule of their own block, whether it stands above or below them.

How the values were obtained:
[1] = system: MCF7 (breast adenocarcinoma, Rb-positive); assay: Cellular proliferation assay (CellTiter-Glo), MCF7; type: cell-based
Method: The MCF7 cells were seeded in Costar (Tewksbury, Mass.) 3903 96 well tissue culture treated white walled/clear bottom plates. A nine point dose response dilution series from 10 uM to 1 nM was performed and cell viability was determined after six days of compound treatment as indicated using the CellTiter-Glo® luminescent cell viability assay (CTG; Promega, Madison, Wis., United States of America) following the manufacturer's recommendations. Plates were read on a BioTek (Winooski, Vt.) Syngergy2 multi-mode plate reader. The Relative Light Units (RLU) were plotted as a result of variable molar concentration and data was analyzed using Graphpad (LaJolla, Calif.) Prism 5 statistical software to determine the EC50 for each compound.
(§1) Cellular proliferation assays were conducted using the following cancer cell lines: MCF7 (breast adenocarcinoma—Rb-positive), ZR-75-1 (breast ductal carcinoma—Rb-positive), H69 (human small cell lung cancer—Rb-negative) cells, or A2058 (human metastatic melanoma cells—Rb-negative). These cells were seeded in Costar (Tewksbury, Mass.) […] 96 well tissue culture treated white walled/clear bottom plates. Cells were treated with the compounds of Table 1 as nine point dose response dilution series from 10 uM to 1 nM. Cells were exposed to compounds and then cell viability was determined after either four (H69) or six (MCF7, ZR75-1, A2058) days as indicated using the CellTiter-Glo® luminescent cell viability assay (CTG; Promega, Madison, Wis., United States of America) following the manufacturer's recommendations. Plates were read on BioTek (Winooski, Vt.) Syngergy2 multi-mode plate reader. The Relative Light Units (RLU) were plotted as a result of variable molar concentration and data was analyzed using Graphpad (LaJolla, Calif.) Prism 5 statistical software to determine the EC50 for each compound.

CDK4/CyclinD1 = CDK4/CyclinD1 (Homo sapiens (Human), UniProt P11802); assay: CDK4/cyclinD1 kinase assay (Nanosyn, microfluidic Caliper platform); type: biochemical; conditions: ATP at Km (200 uM); read-out: CDK4/CycD1 IC50
Method: (§2) Selected compounds disclosed herein were tested in CDK4/cyclinD1, CDK2/CycA and CDK2/cyclinE kinase assays by Nanosyn (Santa Clara, Calif.) to determine their inhibitory effect on these CDKs. The assays were performed using microfluidic kinase detection technology (Caliper Assay Platform). The compounds were tested in 12-point dose-response format in singlicate at Km for ATP. Phosphoacceptor substrate peptide concentration used was 1 μM for all assays and Staurosporine was used as the reference compound for all assays. Specifics of each assay are as described below:
CDK4/CyclinD1: Enzyme concentration: 1 nM; ATP concentration: 200 μM; Incubation time: 10 hr.

[2] = system: ZR-75-1 (breast ductal carcinoma, Rb-positive); assay: Cellular proliferation assay (CellTiter-Glo), ZR-75-1; type: cell-based
Method: as §1

CDK2/CyclinE = CDK2/CyclinE (Homo sapiens (Human), UniProt P24941); assay: CDK2/cyclinE kinase assay (Nanosyn, microfluidic Caliper platform); type: biochemical
Method: as §2, with “assays.” for “assays. Specifics of each assay are as described below:”

CDK2/CyclinA = CDK2/CyclinA (Homo sapiens (Human), UniProt P24941); assay: CDK2/CycA kinase assay (Nanosyn, microfluidic Caliper platform); type: biochemical
Method: as §2
CDK2/CyclinA: Enzyme concentration: 0.2 nM; ATP concentration: 50 μM; Incubation time: 3 hr.

[3] = Mouse pharmacokinetics (oral gavage / intravenous); type: in vivo, mice; conditions: plasma, 30 mg/kg, read-out: F (oral bioavailability)
Method: Blood samples were taken at 0, 0.25, 0.5, 1.0, 2.0, 4.0, and 8.0 hours post dosing and the plasma concentrations were determined by HPLC.

HSPCs (LKS+) = assay: Bone marrow HSPC proliferation by EdU incorporation and flow cytometry; type: in vivo; conditions: 150 mg/kg oral gavage, mice
Method: . JCNI 2012; 104(6):476-487 (FIG. 2A). […].
Mice were then sacrificed at the indicated times (0, 12, 24, 36, or 48 hours following compound administration), and bone marrow was harvested (n=3 mice per time point), as previously described (Johnson et al. J. Clin. Invest. (2010) 120(7), 2528-2536). Four hours before the bone marrow was harvested, mice were treated with 100 μg of EdU by intraperitoneal injection (Invitrogen). Bone marrow mononuclear cells were harvested and immunophenotyped using previously described methods and percent EdU positive cells were then determined (Johnson et al. J. Clin. Invest. (2010) 120(7), 2528-2536). In brief, HSPCs were identified by expression of lineage markers (Lin−), Sca1 (S+), and c-Kit (K+).
Four hours before animals were sacrificed and the bone marrow was harvested, mice were treated with 100 μg of EdU by intraperitoneal injection. Three mice per group were sacrificed at 12 hours and the remaining three animals per group were sacrificed at 24 hours. Results are shown in FIG. 5A as the ratio of EdU positive cells for treated animals at 12 or 24 hour time points compared to control.
Further experiments were completed with Compound T examining dose response and longer periods of compound treatment. […] […].
Both compounds were administered at 150 mg/kg by oral gavage. One hour prior to harvesting bone marrow, EdU was IP injected to label cycling cells. Bone marrow was harvested at 12, 24, 36, and 48 hours after compound treatment and the percentage of EdU positive HSPC cells was determined at each time point.

[4] = system: MMTV-c-neu (Rb-positive) tumors; assay: MMTV-c-neu HER2-driven (Rb-positive) luminal breast cancer mouse model; type: in vivo, mice
From the text: A HER2-driven model (Rb-positive) of breast cancer (Muller W J, Sinn E, Pattengale P K, Wallace R, Leder P. Single-step induction of mammary adenocarcinoma in transgenic mice bearing the activated c-neu oncogene. Cell 1988; 54: 105-15), that expresses c-neu (the mouse ortholog of human HER2) driven by the MMTV promoter was used in the following example. This model was chosen because previous studies in murine (Yu Q, Geng Y, Sicinski P. Specific protection against breast cancers by cyclin D1 ablation. Nature 2001; 411: 1017-21; Landis M W, Pawlyk B S, Li T, Sicinski P, Hinds P W. Cyclin D1-dependent kinase activity in murine development and mammary tumorigenesis. Cancer Cell 2006; 9: 13-22; Reddy H K, Mettus R V, Rane S G, Grana X, Litvin J, Reddy E P. Cyclin-dependent kinase 4 expression is essential for neu-induced breast tumorigenesis. Cancer Res 2005; 65: 10174-8; Yu Q, Sicinska E, Geng Y, Ahnstrom M, Zagozdzon A, Kong Y, et al. Requirement for CDK4 kinase function in breast cancer. Cancer Cell 2006; 9: 23-32.) and human HER2-positive breast cancer (An H X, Beckmann M W, Reifenberger G, Bender H G, Niederacher D. Gene amplification and overexpression of CDK4 in sporadic breast carcinomas is associated with high tumor cell proliferation. Am J Pathol 1999; 154: 113-8; Samady L, Dennis J, Budhram-Mahadeo V, Latchman DS. Activation of CDK4 gene expression in human breast cancer cells by the Brn-3b POU family transcription factor. Cancer Biol Ther 2004; 3: 317-23; Takano Y, Takenaka H, Kato Y, Masuda M, Mikami T, Saegusa M, et al. Cyclin D1 overexpression in invasive breast cancers: correlation with cyclin-dependent kinase 4 and oestrogen receptor overexpression, and lack of correlation with mitotic activity.
MMTV-neu mice were generated and observed post-lactation, with tumors observed with a median latency of approximately 25 weeks. Mice were enrolled in therapy studies when tumors reached a standard size (50-60 mm3) that permitted easy serial assessment. […] Tumor volumes were calculated by the formula, Volume=[(width)^2×length]/2. Tumor-bearing mice were euthanized at the indicated times due to predefined morbidity, tumor ulceration, or a tumor size of more than 1.5 cm in diameter.
Tumors were serially assessed weekly using caliper measurements. Therapeutic intervention began once tumors reached 40-64 mm^3. Tumor volume was calculated using the formula […]. All three compounds were administered orally via medicated diets (100 mg/kg/d). Medicated diets were administered for 28 consecutive days and then stopped. RECIST criteria were used to assess objective response rates.

Sequence of CDK4/CyclinD1 (P11802 whole entry, species assumed): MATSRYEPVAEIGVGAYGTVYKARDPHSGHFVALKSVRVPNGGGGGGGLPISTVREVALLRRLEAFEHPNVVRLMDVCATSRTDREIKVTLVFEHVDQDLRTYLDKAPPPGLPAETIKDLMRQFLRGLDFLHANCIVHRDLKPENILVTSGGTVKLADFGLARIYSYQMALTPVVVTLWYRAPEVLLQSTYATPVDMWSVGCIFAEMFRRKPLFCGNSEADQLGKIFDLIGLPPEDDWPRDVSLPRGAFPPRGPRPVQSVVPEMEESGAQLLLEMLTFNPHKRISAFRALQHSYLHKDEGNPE
Sequence of CDK4/CyclinD1 (P24385 whole entry partner, species assumed): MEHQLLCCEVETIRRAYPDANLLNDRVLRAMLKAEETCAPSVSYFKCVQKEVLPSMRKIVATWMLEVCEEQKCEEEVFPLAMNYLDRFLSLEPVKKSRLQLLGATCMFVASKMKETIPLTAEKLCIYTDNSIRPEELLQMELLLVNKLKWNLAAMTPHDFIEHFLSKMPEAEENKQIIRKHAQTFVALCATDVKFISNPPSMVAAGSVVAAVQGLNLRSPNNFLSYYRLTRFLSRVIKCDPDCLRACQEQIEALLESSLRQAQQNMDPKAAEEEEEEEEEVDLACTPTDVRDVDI

Compound: CC1(C)CN(c2ccc(Nc3ncc4cc5n(c4n3)C3(CCCCC3)CNC5=O)nc2)CCN1CC1CC1 [H]
- inhibition of cellular proliferation of MCF-7 cells (FIGS. 21-24) [1]: significant inhibition of cellular proliferation
- inhibition of cellular proliferation of ZR75-1 cells (FIGS. 25-28) [2]: significant inhibition of cellular proliferation

Compound: C[C@@H]1CN(c2ccc(Nc3ncc4cc5n(c4n3)C3(CCCCC3)CNC5=O)nc2)C[C@H](C)N1C[C@@H](C)O [MM]
- inhibition of cellular proliferation of MCF-7 cells (FIGS. 21-24) [1]: significant inhibition of cellular proliferation
- inhibition of cellular proliferation of ZR75-1 cells (FIGS. 25-28) [2]: significant inhibition of cellular proliferation

Compound: CC1CN(c2ccc(Nc3ncc4cc5n(c4n3)C3(CCCCC3)CNC5=O)nc2)C[C@@H](C)N1CC1CC1 (some centres unmarked) [OO]
- inhibition of cellular proliferation of MCF-7 cells (FIGS. 21-24) [1]: significant inhibition of cellular proliferation
- inhibition of cellular proliferation of ZR75-1 cells (FIGS. 25-28) [2]: significant inhibition of cellular proliferation

Compound: CC1CN(c2ccc(Nc3ncc4cc5n(c4n3)C3(CCCC3)CNC5=O)nc2)CCN1CCC(C)(C)C (centres unmarked) [PPP]
- Fold Selectivity (CDK2/CycE/CDK4) (CDK2/CyclinE): 21263
- IC50 (CDK2/CyclinE; ATP at Km (100 uM), read-out: CDK2/CycE IC50): 16500 nM
- IC50 (CDK4/CyclinD1): 0.8 nM
- Fold Selectivity (CDK2/CycA/CDK4) (CDK2/CyclinA): 3402
- IC50 (CDK2/CyclinA; ATP at Km (50 uM)): 2640 nM

Compound: O=C1NCC2(CCCCC2)n2c1cc1cnc(Nc3ccc(N4CCC(N5CCOCC5)CC4)cn3)nc12 [U]
- tumor volume during a 28 day course of therapy ([4]; 100 mg/kg/d in chow): marked decrease in tumor volume
- objective response rate ([4]; 100 mg/kg/day medicated diet, 28 days, RECIST criteria): 100%
- bioavailability [3]: 67%
- inhibition of cellular proliferation of MCF-7 cells (FIGS. 21-24) [1]: significant inhibition of cellular proliferation
- inhibition of cellular proliferation of ZR75-1 cells (FIGS. 25-28) [2]: significant inhibition of cellular proliferation

Compound: CCC(C)[C@@H]1CNC(=O)c2cc3cnc(Nc4ccc(N5CCNCC5)cn4)nc3n21 (some centres unmarked) [VVV]
- Fold Selectivity (CDK2/CycE/CDK4) (CDK2/CyclinE): 589

The next lines start with results.

- EC50 ([1]; Homo sapiens, MCF7, 144 h, six days): 123 nM
Compound: CN1CCN(C(=O)c2ccc(Nc3ncc4cc5n(c4n3)C3(CCCC3)CNC5=O)nc2)CC1 [BBB]

- IC50 (CDK4/CyclinD1): 0.2 nM
Compound: CC(C)(O)CN1CCN(c2ccc(Nc3ncc4cc5n(c4n3)C3(CCCC3)CNC5=O)nc2)CC1 [EEE]

- bioavailability [3]: 2%
Compound: O=C1NCC2(CCCCC2)n2c1cc1cnc(Nc3ccc(N4CCNCC4)cn3)nc12 [Q]
- EdU incorporation into HSPCs at 12 and 24 hours (FIG. 5A) (HSPCs (LKS+)): some reduction at 12 hours and started to return to baseline at 24 hours
- inhibition of cellular proliferation of MCF-7 cells (FIGS. 21-24) [1]: significant inhibition of cellular proliferation
- inhibition of cellular proliferation of ZR75-1 cells (FIGS. 25-28) [2]: significant inhibition of cellular proliferation
